Experimental data reported in patent publication US20230015823A1, “METHODS OF ADMINISTERING VOXELOTOR” (Global Blood Therapeutics, Inc., priority 2019, published 2023).
Read-outs that look alike come from different tables or passages of the source.

Assay: Phase 1 study of a single oral dose of voxelotor in subjects with hepatic impairment: whole blood and plasma PK
Assay type: in vivo, human
Conditions: human; for half-life: read-out: t1/2, mean (converted); for Vd/F: read-out: Vz/F, GM (converted); for Tmax: read-out: tmax, median (converted)
Procedure: A Phase 1, open-label study was performed to characterize pharmacokinetics (PK) and safety of a single oral dose of voxelotor in subjects with hepatic impairment. The study was to assess the effects of mild, moderate, or severe hepatic impairment on the PK of a single oral dose of voxelotor, to evaluate the safety and tolerability of a single oral dose of voxelotor in subjects with mild, moderate, or severe hepatic impairment, as well as to establish potential dose adjustment guidance based upon the degree of hepatic insufficiency. […] This study was designed to assess the effects of mild, moderate, or severe hepatic impairment on the PK of a single oral dose of voxelotor. Routine safety assessments (AE monitoring, vital signs, physical examinations, clinical laboratory tests, and ECGs) were performed. Eligible subjects received a single oral dose of voxelotor 1500 mg (5×300-mg capsules) on Day 1 (for normal hepatic function, mild and moderate hepatic impairment). […] No food was allowed for at least 4 hours postdose. No water or any type of liquid was allowed for 1 hour before dosing through 1-hour postdose with the exception of water consumed for dosing. Adverse events and concomitant medication use were monitored throughout the study. Safety assessments, including physical examinations, vital signs assessments, 12-lead ECGs, and clinical laboratory tests, were performed. Whole blood and plasma concentrations of voxelotor were determined using validated assays. […] Louis, Mo.) and actual sampling times. The following PK parameters were determined. To assess the effect of hepatic impairment on the PK of voxelotor, a linear mixed-effect model was fitted to the log-transformed values of whole blood and plasma Cmax, AUCt, and AUCinf. The model included hepatic impairment group as a fixed effect and age and weight as covariates. Point estimates and 90% CIs for hepatic function group differences (mild, moderate, and severe hepatically-impaired subjects [test] versus the normal hepatic function subjects [control]) on the log scale were exponentiated to obtain estimates for GM ratios on the original scale. Voxelotor whole blood and plasma concentrations were measured using a validated liquid chromatography-mass spectrometry method. The lower limit of assay quantitation for voxelotor was 10.0 ng/mL for whole blood and 5.00 ng/mL in plasma.

[1] = plasma, po, 600 mg, plasma, severe hepatic impairment, 600 mg single oral dose
[2] = plasma, po, 1500 mg, plasma, mild hepatic impairment, 1500 mg single oral dose
[3] = plasma, po, 1500 mg, plasma, moderate hepatic impairment, 1500 mg single oral dose
[4] = plasma, po, 1500 mg, plasma, normal hepatic function, 1500 mg single oral dose

## CC(C)n1nccc1-c1ncccc1COc1cccc(O)c1C=O [voxelotor, 2-hydroxy-6-((2-(1-isopropyl-1H-pyrazol-5-yl)pyridin-3-yl)methoxy)benzaldehyde]
In vivo, plasma, mild hepatic impairment, 1500 mg single oral dose
  half-life: 71.4 h
plasma, oral, 600 mg, plasma, severe hepatic impairment (Test), 600 mg, adjusted for dose to 1500 mg, read-out: AUCinf, Geometric LS Mean
  AUC(0-inf): 394 µg·h/mL
plasma, oral, 600 mg, plasma, severe hepatic impairment (Test), 600 mg, adjusted for dose to 1500 mg, read-out: AUCt, Geometric LS Mean
  AUC(0-t): 388 µg·h/mL
plasma, oral, 600 mg, plasma, severe hepatic impairment (Test), 600 mg, adjusted for dose to 1500 mg, read-out: Cmax, Geometric LS Mean
  Cmax: 2900 ng/mL
plasma, oral, 1500 mg, plasma, mild hepatic impairment (Test), 1500 mg, read-out: AUCinf, Geometric LS Mean
  AUC(0-inf): 223 µg·h/mL
plasma, oral, 1500 mg, plasma, mild hepatic impairment (Test), 1500 mg, read-out: AUCt, Geometric LS Mean
  AUC(0-t): 221 µg·h/mL
plasma, oral, 1500 mg, plasma, mild hepatic impairment (Test), 1500 mg, read-out: Cmax, Geometric LS Mean
  Cmax: 2360 ng/mL
plasma, oral, 1500 mg, plasma, moderate hepatic impairment (Test), 1500 mg, read-out: AUCinf, Geometric LS Mean
  AUC(0-inf): 240 µg·h/mL
plasma, oral, 1500 mg, plasma, moderate hepatic impairment (Test), 1500 mg, read-out: AUCt, Geometric LS Mean
  AUC(0-t): 245 µg·h/mL
plasma, oral, 1500 mg, plasma, moderate hepatic impairment (Test), 1500 mg, read-out: Cmax, Geometric LS Mean
  Cmax: 3030 ng/mL
plasma, oral, 1500 mg, plasma, normal hepatic function (Reference), 1500 mg, read-out: AUCinf, Geometric LS Mean
  AUC(0-inf): 204 µg·h/mL
plasma, oral, 1500 mg, plasma, normal hepatic function (Reference), 1500 mg, read-out: AUCt, Geometric LS Mean
  AUC(0-t): 203 µg·h/mL
plasma, oral, 1500 mg, plasma, normal hepatic function (Reference), 1500 mg, read-out: Cmax, Geometric LS Mean
  Cmax: 2010 ng/mL
plasma, po, 600 mg, plasma, severe hepatic impairment, 600 mg single oral dose, adjusted for dose to 1500 mg, read-out: AUC0-96, GM (converted)
  AUC(0-t): 177 µg·h/mL
plasma, po, 600 mg, plasma, severe hepatic impairment, 600 mg single oral dose, adjusted for dose to 1500 mg, read-out: AUCinf, GM (converted)
  AUC(0-inf): 393 µg·h/mL
plasma, po, 600 mg, plasma, severe hepatic impairment, 600 mg single oral dose, adjusted for dose to 1500 mg, read-out: AUCt, GM (converted)
  AUC(0-t): 386 µg·h/mL
plasma, po, 600 mg, plasma, severe hepatic impairment, 600 mg single oral dose, adjusted for dose to 1500 mg, read-out: Cmax, GM (converted)
  Cmax: 2960 ng/mL
[1]
  Vd/F: 592 L
  half-life: 109 h
  Tmax: 4 h
plasma, po, 1500 mg, plasma, mild hepatic impairment, 1500 mg single oral dose, read-out: AUC0-96, GM (converted)
  AUC(0-t): 143 µg·h/mL
plasma, po, 1500 mg, plasma, mild hepatic impairment, 1500 mg single oral dose, read-out: AUCinf, GM (converted)
  AUC(0-inf): 224 µg·h/mL
plasma, po, 1500 mg, plasma, mild hepatic impairment, 1500 mg single oral dose, read-out: AUCt, GM (converted)
  AUC(0-t): 223 µg·h/mL
plasma, po, 1500 mg, plasma, mild hepatic impairment, 1500 mg single oral dose, read-out: Cmax, GM (converted)
  Cmax: 2390 ng/mL
[2]
  Vd/F: 674 L
  Tmax: 4 h
plasma, po, 1500 mg, plasma, moderate hepatic impairment, 1500 mg single oral dose, read-out: AUC0-96, GM (converted)
  AUC(0-t): 146 µg·h/mL
plasma, po, 1500 mg, plasma, moderate hepatic impairment, 1500 mg single oral dose, read-out: AUCinf, GM (converted)
  AUC(0-inf): 244 µg·h/mL
plasma, po, 1500 mg, plasma, moderate hepatic impairment, 1500 mg single oral dose, read-out: AUCt, GM (converted)
  AUC(0-t): 252 µg·h/mL
plasma, po, 1500 mg, plasma, moderate hepatic impairment, 1500 mg single oral dose, read-out: Cmax, GM (converted)
  Cmax: 2910 ng/mL
[3]
  Vd/F: 789 L
  half-life: 90 h
  Tmax: 5 h
plasma, po, 1500 mg, plasma, normal hepatic function, 1500 mg single oral dose, read-out: AUC0-96, GM (converted)
  AUC(0-t): 120 µg·h/mL
plasma, po, 1500 mg, plasma, normal hepatic function, 1500 mg single oral dose, read-out: AUCinf, GM (converted)
  AUC(0-inf): 200 µg·h/mL
plasma, po, 1500 mg, plasma, normal hepatic function, 1500 mg single oral dose, read-out: AUCt, GM (converted)
  AUC(0-t): 199 µg·h/mL
plasma, po, 1500 mg, plasma, normal hepatic function, 1500 mg single oral dose, read-out: Cmax, GM (converted)
  Cmax: 2010 ng/mL
[4]
  Vd/F: 865 L
  half-life: 80.8 h
  Tmax: 4 h
Whole blood, oral, 600 mg, whole blood, severe hepatic impairment (Test), 600 mg, adjusted for dose to 1500 mg, read-out: AUCinf, Geometric LS Mean
  AUC(0-inf): 13600 µg·h/mL
Whole blood, oral, 600 mg, whole blood, severe hepatic impairment (Test), 600 mg, adjusted for dose to 1500 mg, read-out: AUCt, Geometric LS Mean
  AUC(0-t): 13300 µg·h/mL
Whole blood, oral, 600 mg, whole blood, severe hepatic impairment (Test), 600 mg, adjusted for dose to 1500 mg, read-out: Cmax, Geometric LS Mean
  Cmax: 85400 ng/mL
Whole blood, oral, 1500 mg, whole blood, mild hepatic impairment (Test), 1500 mg, read-out: AUCinf, Geometric LS Mean
  AUC(0-inf): 8160 µg·h/mL
Whole blood, oral, 1500 mg, whole blood, mild hepatic impairment (Test), 1500 mg, read-out: AUCt, Geometric LS Mean
  AUC(0-t): 8120 µg·h/mL
Whole blood, oral, 1500 mg, whole blood, mild hepatic impairment (Test), 1500 mg, read-out: Cmax, Geometric LS Mean
  Cmax: 72900 ng/mL
Whole blood, oral, 1500 mg, whole blood, moderate hepatic impairment (Test), 1500 mg, read-out: AUCinf, Geometric LS Mean
  AUC(0-inf): 8230 µg·h/mL
Whole blood, oral, 1500 mg, whole blood, moderate hepatic impairment (Test), 1500 mg, read-out: AUCt, Geometric LS Mean
  AUC(0-t): 8190 µg·h/mL
Whole blood, oral, 1500 mg, whole blood, moderate hepatic impairment (Test), 1500 mg, read-out: Cmax, Geometric LS Mean
  Cmax: 64900 ng/mL
Whole blood, oral, 1500 mg, whole blood, normal hepatic function (Reference), 1500 mg, read-out: AUCinf, Geometric LS Mean
  AUC(0-inf): 7150 µg·h/mL
Whole blood, oral, 1500 mg, whole blood, normal hepatic function (Reference), 1500 mg, read-out: AUCt, Geometric LS Mean
  AUC(0-t): 7130 µg·h/mL
Whole blood, oral, 1500 mg, whole blood, normal hepatic function (Reference), 1500 mg, read-out: Cmax, Geometric LS Mean
  Cmax: 61400 ng/mL
Whole blood, po, 600 mg, whole blood, severe hepatic impairment, 600 mg single oral dose, adjusted for dose to 1500 mg, read-out: AUC0-96, GM (converted)
  AUC(0-t): 6050 µg·h/mL
Whole blood, po, 600 mg, whole blood, severe hepatic impairment, 600 mg single oral dose, adjusted for dose to 1500 mg, read-out: AUCinf, GM (converted)
  AUC(0-inf): 13600 µg·h/mL
Whole blood, po, 600 mg, whole blood, severe hepatic impairment, 600 mg single oral dose, adjusted for dose to 1500 mg, read-out: AUCt, GM (converted)
  AUC(0-t): 13300 µg·h/mL
Whole blood, po, 600 mg, whole blood, severe hepatic impairment, 600 mg single oral dose, adjusted for dose to 1500 mg, read-out: Cmax, GM (converted)
  Cmax: 86600 ng/mL
Whole blood, po, 600 mg, whole blood, severe hepatic impairment, 600 mg single oral dose
  Vd/F: 17.6 L
